Measurements: patent US8236337B2, “Anti-microbial orthodontic compositions and appliances and methods of production and use thereof” (Selenium, Ltd., priority 2005, dated 2012)

How the values were obtained:
Biofilm formation = experiment: Inhibition of biofilm formation by selenium compounds (Example 4); format: cell-based; set-up: Percent inhibition of Biofilm formation: concentration or dose not given beside the values
[1] = Superoxide radical generation by selenium modified bonding agent coated on a surface, measured by chemiluminescence; leaching check of soak water
Procedure: In this hydrophobic mixing experiment, a selenium compound comprising a CN protecting group [2-(selenocyanatoacetoxy)butoxyethyl methacrylate] was mixed with the bonding agent 2-(Acetoacetoxy)ethylmethacrylate (AAEMA) to a final selenium concentration of 5%. The selenium composition was then applied to a surface, such as a PMMA plastic or a human toenail (results with both surfaces were the same), preferably at a concentration of about 100 mg/cm^2. The ability of the selenium modified bonding agent to generate superoxide radicals was then measured by chemiluminescence, as shown in FIG. 1. In FIG. 1, “Crude 1” and “Crude 2” refer to a mixture of the selenium labeled material with AAEMA; “pure” refers to the pure selenium labeled compound (no AAEMA); “blank” refers to the AAEMA with no selenium; for “plastic removed”, the mixture-coated plastic was soaked in water, and then after removal of the plastic, the aqueous solution was tested for any selenium that may have come off.

Row | Compound | Biofilm formation, log reduction (Biofilm formation) | Percent inhibition of Biofilm formation (Biofilm formation) | ability to generate superoxide radicals (chemiluminescence) ([1]; mixed with AAEMA to final selenium concentration of 5%, coated on PMMA plastic or human toenail and dried) | leaching of selenium from coated plastic ("plastic removed" sample) ([1]; mixture-coated plastic soaked in water, aqueous solution tested by chemiluminescence after removal of plastic)
1 | 3,4-Bis(selenyl)2-hydroxy propanol | 8 logs | 100% | – | –
2 | 3,4-Bis(selenyl)ethanoic acid | 8 logs | 100% | – | –
3 | 3,4-Bis(selenyl)propionic acid | 2 logs | 99% | – | –
4 | C1CCC(C[Se][Se]CC2CCCCC2)CC1 [1,2-Bis(cyclohexylmethyl)diselenide] | – | 98% | – | –
5 | c1ccc([Se][Se]c2ccccc2)cc1 [1,2-Bis(phenyl)diselenide] | 8 logs | 100% | – | –
6 | N#C[Se]CCN [1-amino,2-selenocyanato ethane] | 5 logs | 99.999% | – | –
7 | CC(O)C(O)[Se]C#N (centres unmarked) [1-selenocyanato,2-hydroxy propanol] | 8 logs | 100% | – | –
8 | C=C(C)C(=O)OCCOCC(CC)OC(=O)C[Se]C#N (centres unmarked) [2-(selenocyanatoacetoxy)butoxyethyl methacrylate] | – | – | still demonstrating chemiluminescence | no significant leaching
9 | C=C(C)C(=O)OCCOC(=O)CC(C)OC(=O)CC[Se][Se]CCC(=O)OC(C)CC(=O)OCCOC(=O)C(=C)C (centres unmarked) [3-[3-(2-{1-Methyl-2-[2-(2-methyl-acryloyloxy)-ethoxycarbonyl]-ethoxycarbonyl}-ethyldiselenyl)-propionyloxy]-butyric acid 2-(2-methyl-acryloyloxy)-ethyl ester] | 8 logs | 100% | – | –
10 | CC(NC(=O)OCC1c2ccccc2-c2ccccc21)[Se]C#N (centres unmarked) [Fmoc-1-amino,1-selenocyanato ethane] | 8 logs | 100% | – | –
11 | Cl.Cl.NCC[Se][Se]CCN [Selenocystamine 2HCl] | 5 logs | 99.999% | – | –
12 | NCC[Se-].[Na+] [Sodium 1-amino,2-seleno ethane] | 3 logs | 99.9% | – | –
